Assay results taken from publication PMC7616177, “From structure to clinic: Design of a muscarinic M1 receptor agonist with the potential to treat Alzheimer’s disease” (Cell, 2021).

What was measured:
[1] = Modified Irwin Functional Observation Battery; assay type: in vivo; details: plasma; rat, 100 mg/kg oral
[2] = tested on: rats; experiment: Modified Irwin Functional Observation Battery; assay type: in vivo; details: rat
[3] = tested on: Cynomolgus macaques; experiment: Resting state qEEG in non-human primates; assay type: in vivo, Macaca fasicularis; details: subcutaneous, 0.3 and 3 mg/kg
Text: 6 adult male Cynomolgus macaques (Macaca fasicularis; 8-10 kg; 12-15 years old) were used for EEG studies. These animals had been used previously on other studies and were not considered to be pharmacologically naive. Subjects were housed in a temperature-controlled recording room and are maintained on a 12-hour light/dark cycle. The animals had access to water ad libitum and were fed a full daily regimen of food each day (Purina Animal Nutrition, Gray Summit, MO) enriched with fresh fruit and/or vegetables. All studies are conducted in compliance with USDA, NIH and SRI International IACUC guidelines. SRI International is an AAALAC accredited institution. […] Following the acclimation period, animals were dosed subcutaneously with vehicle or compound and EEG activity was recorded for 120 min. […]
Data was analyzed using existing, customized MATLAB scripts with the EEGLAB toolbox. […] Mean absolute power, log transformed absolute power, and relative power was calculated based on each frequency band’s contribution to the total absolute power (i.e., % power). The mean normalized power was subsequently calculated by dividing each frequency band’s absolute power in the drug condition with the corresponding power in the control condition for each individual animal (i.e., use each animal as its own control) and then average across subjects. […]

For `CCOC(=O)N1CCC[C@H](N2CCC(C(=O)NC3(C)CCC3)CC2)CC1` [HTL9936, ethyl (S)-4-(4-((1-methylcyclobutyl)carbamoyl)piperidin-1-yl)azepane-1-carboxylate], which Cmax [1] is on record?
The Cmax was 6400 ng/mL.

What about the “Cu,pl” value ([2]; 100 mg/kg oral) of the same molecule?
The value was 11,994 nM.

And the Seizure-like effects ([2]; oral dosing up to 100 mg/kg)?
Its Seizure-like effects is “complete absence of seizure-like effects”.

What about the qEEG power [3] of the same molecule?
Its qEEG power is “increased delta power”.
